The assay has as its target F508del-CFTR in CFBE41o– cells (Homo sapiens, UniProt Q99942). Nature of the assay: HS-YFP microfluorimetric assay of F508del-CFTR rescue (corrector activity). In kind it is cell-based. The conditions noted are these: CFBE41o– cells co-expressing F508del-CFTR and HS-YFP, 24 h treatment, Figure 5. The method, then: As a primary screen, the new thiadiazole derivatives 1–46 (Table 1) were tested for their ability to rescue the F508del-CFTR trafficking defect in CFBE41o^– cells, stably co-expressing F508del-CFTR and the HS-YFP (Figure 5). This cell line has been extensively used by our group, in combination with the microfluorimetric assay based on the HS-YFP, to identify and characterize many CFTR correctors.[39],[47] This assay relies on the hypothesis that RNF5 inhibition results in increased mutant CFTR processing and activity. Therefore, it can easily identify putative RNF5 inhibitors, but not other types of RNF5-binding compounds that could have no effect or have a negative effect on CFTR function, such as RNF5 activators (see analog-1). Thus, we opted for this assay as our primary aim was the identification of RNF5 inhibitors as a possible therapeutic strategy in CF. Twenty-four hours after seeding on 96-well plates, CFBE41o^– cells stably expressing F508del-CFTR and the HS-YFP were treated with test compounds at the desired concentration, one compound per well. Cells treated with vehicle alone (DMSO) and with corrector VX-809 (1 μM), respectively, served as negative and positive controls. At the time of the assay, cells were washed with PBS containing (in […]) 137 NaCl, 2.7 KCl, 8.1 Na2HPO4, 1.5 KH2PO4, 1 CaCl2, and 0.5 MgCl2. Cells were then incubated for 25 min with […] of PBS plus forskolin (20 μM) and VX-770 (1 μM) to maximally stimulate F508del-CFTR. Cells were then transferred to a microplate reader (FluoStar Galaxy; BMG Labtech, Offenburg, Germany) for CFTR activity determination. The plate reader was equipped with high-quality excitation (HQ500/20X: 500 ± 10 nm) and emission (HQ535/30M: 535 ± 15 nm) filters for YFP (Chroma Technology). Each assay comprised a continuous 14 s fluorescence reading and 2 s before and 12 s after injection of […] of an iodide-containing solution (PBS with Cl^– replaced by I^–; final I^– concentration […]). Data were normalized to the initial background-subtracted fluorescence. To determine the I^– influx rate, the final 11 s of the data for each well was fitted with an exponential function to extrapolate initial slope (dF/dt). Reproducibility of results was confirmed by performing three independent experiments. CFBE41o^– cells co-expressing F508del-CFTR and the HS-YFP were reverse-transfected with 50 nM (final concentration) siRNAs (Stealth, Life Technologies) in the presence of lipofectamine 2000 as a transfection agent. The following day, the medium was changed, and the cells were incubated at 37 °C for additional 24 h treated with test compounds at the desired concentration, prior to processing the cells for the YFP-based functional assay.

F508del-CFTR in CFBE41o– cells, sequence (Q99942 2-180): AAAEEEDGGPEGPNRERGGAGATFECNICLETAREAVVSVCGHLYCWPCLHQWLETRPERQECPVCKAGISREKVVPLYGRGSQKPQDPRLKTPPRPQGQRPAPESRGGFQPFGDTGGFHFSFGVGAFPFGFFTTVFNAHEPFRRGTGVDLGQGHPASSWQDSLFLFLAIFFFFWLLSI
F508del-CFTR in CFBE41o– cells, sequence (P13569 with tags, fused parts or gaps DEL508-508 partner): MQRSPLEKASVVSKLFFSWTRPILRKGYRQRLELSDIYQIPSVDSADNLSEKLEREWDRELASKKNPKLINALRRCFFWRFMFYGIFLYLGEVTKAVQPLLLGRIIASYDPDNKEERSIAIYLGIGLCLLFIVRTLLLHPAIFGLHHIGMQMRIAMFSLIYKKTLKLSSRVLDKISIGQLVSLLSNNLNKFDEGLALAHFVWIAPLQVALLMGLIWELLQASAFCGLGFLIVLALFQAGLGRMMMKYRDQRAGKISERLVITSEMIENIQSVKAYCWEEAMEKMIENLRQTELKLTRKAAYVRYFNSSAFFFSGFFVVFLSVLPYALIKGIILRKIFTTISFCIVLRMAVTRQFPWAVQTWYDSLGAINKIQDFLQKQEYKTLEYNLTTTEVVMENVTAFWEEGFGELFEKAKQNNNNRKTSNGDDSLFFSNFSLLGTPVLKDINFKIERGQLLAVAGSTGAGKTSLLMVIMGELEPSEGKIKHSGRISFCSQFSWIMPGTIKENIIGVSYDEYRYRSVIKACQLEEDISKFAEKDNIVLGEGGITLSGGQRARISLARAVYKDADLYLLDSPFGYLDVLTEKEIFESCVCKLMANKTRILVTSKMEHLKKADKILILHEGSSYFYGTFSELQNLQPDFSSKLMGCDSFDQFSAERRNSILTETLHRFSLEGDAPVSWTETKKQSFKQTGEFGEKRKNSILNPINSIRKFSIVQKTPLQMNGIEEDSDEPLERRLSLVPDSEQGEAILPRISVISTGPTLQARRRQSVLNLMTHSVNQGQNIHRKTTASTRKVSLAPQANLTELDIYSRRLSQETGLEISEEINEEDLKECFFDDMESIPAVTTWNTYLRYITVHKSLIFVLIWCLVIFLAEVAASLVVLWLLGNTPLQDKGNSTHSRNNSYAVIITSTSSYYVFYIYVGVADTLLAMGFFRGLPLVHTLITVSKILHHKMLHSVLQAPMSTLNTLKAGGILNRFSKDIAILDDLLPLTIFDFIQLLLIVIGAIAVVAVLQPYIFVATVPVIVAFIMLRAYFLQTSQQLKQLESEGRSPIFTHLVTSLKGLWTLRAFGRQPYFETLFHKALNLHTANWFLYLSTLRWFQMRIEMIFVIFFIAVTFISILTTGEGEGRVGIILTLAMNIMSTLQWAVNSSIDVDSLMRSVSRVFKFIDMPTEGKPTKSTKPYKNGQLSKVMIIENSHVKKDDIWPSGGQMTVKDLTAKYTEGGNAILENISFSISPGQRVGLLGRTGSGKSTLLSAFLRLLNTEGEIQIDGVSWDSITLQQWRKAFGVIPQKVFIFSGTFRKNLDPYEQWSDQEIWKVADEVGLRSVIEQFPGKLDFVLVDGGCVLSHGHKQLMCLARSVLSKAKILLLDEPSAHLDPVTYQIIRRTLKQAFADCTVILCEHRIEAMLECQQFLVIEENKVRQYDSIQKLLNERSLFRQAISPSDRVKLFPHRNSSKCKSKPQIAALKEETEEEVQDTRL

`Cc1ns/c(=N\C(=N\c2ccccc2)c2ccccc2)n1Cc1cccc(N)c1` [Compound 20, (E)-N-((Z)-4-(3-Aminobenzyl)-3-methyl-1,2,4-thiadiazol-5(4H)-ylidene)-N′-phenylbenzimidamide]: the “F508del-CFTR corrector activity compared with inh-2 (CFTR activity, primary screen)” value is on record as “decreased potency”.
To `Cc1ccc(Cn2c(C)ns/c2=N\C(=N\c2ccccc2)c2ccccc2)cc1` [Compound 6, (E)-N-((Z)-3-Methyl-4-(4-methylbenzyl)-1,2,4-thiadiazol-5(4H)-ylidene)-N′-phenylbenzimidamide] belongs “maintained the activity unaltered”; to `Cc1ns/c(=N\C(=N\c2ccccc2)c2ccccc2)n1Cc1cccc(Cl)c1` [Compound 24, (E)-N-((Z)-4-(3-Chlorobenzyl)-3-methyl-1,2,4-thiadiazol-5(4H)-ylidene)-N′-phenylbenzimidamide], “increased activity”.
In the case of `Cc1ns/c(=N\C(=N\c2ccccc2)c2ccccc2)n1Cc1ccc(N)cc1` [Compound 13, (E)-N-((Z)-4-(4-Aminobenzyl)-3-methyl-1,2,4-thiadiazol-5(4H)-ylidene)-N′-phenylbenzimidamide], the “F508del-CFTR corrector activity compared with inh-2 (CFTR activity, primary screen)” value was “reduced potency”.
In the case of `Cc1ns/c(=N\C(=N\c2ccccc2)c2ccco2)n1Cc1ccccc1` [Compound 36, (E)-N-((Z)-4-Benzyl-3-methyl-1,2,4-thiadiazol-5(4H)-ylidene)-N′-phenylfuran-2-carboximidamide], the “F508del-CFTR corrector activity compared with inh-2 (CFTR activity, primary screen)” value is reported as “drop of activity”.
To `Cc1ns/c(=N\C(=N\c2ccccc2)c2ccccc2)n1Cc1cccc(C(F)(F)F)c1` [Compound 15, (E)-N-((Z)-3-Methyl-4-(3-(trifluoromethyl)benzyl)-1,2,4-thiadiazol-5(4H)-ylidene)-N′-phenylbenzimidamide] belongs “decreased potency”; to `Cc1ns/c(=N\C(=N\c2ccccc2)c2ccccc2)n1Cc1cccc(N(C)C)c1` [Compound 22, (E)-N-((Z)-4-(3-(Dimethylamino)benzyl)-3-methyl-1,2,4-thiadiazol-5(4H)-ylidene)-N′-phenylbenzimidamide], “did not affect the activity”; to `Cc1cccc(Cn2c(C)ns/c2=N\C(=N\c2ccccc2)c2ccccc2)c1` [Compound 14, (E)-N-((Z)-3-Methyl-4-(3-methylbenzyl)-1,2,4-thiadiazol-5(4H)-ylidene)-N′-phenylbenzimidamide], “did not affect the activity”.
Turning to `Cc1ns/c(=N\C(=N\c2ccccc2)c2ccccc2)n1Cc1ccc(O)cc1` [Compound 8, (E)-N-((Z)-4-(4-Hydroxybenzyl)-3-methyl-1,2,4-thiadiazol-5(4H)-ylidene)-N′-phenylbenzimidamide], the “F508del-CFTR corrector activity compared with inh-2 (CFTR activity, primary screen)” value is “reduced potency”.
In the case of `Cc1ns/c(=N\C(=N\c2cccnc2)c2ccccc2)n1Cc1ccccc1` [Compound 41, (E)-N-((Z)-4-Benzyl-3-methyl-1,2,4-thiadiazol-5(4H)-ylidene)-N′-(pyridin-3-yl)benzimidamide], the “F508del-CFTR corrector activity compared with inh-2 (CFTR activity, primary screen)” value is “inactive analogs”.
For the compound `Cc1ns/c(=N\C(=N\C2CCCCC2)c2ccccc2)n1Cc1ccccc1` [Compound 39, (E)-N-((Z)-4-Benzyl-3-methyl-1,2,4-thiadiazol-5(4H)-ylidene)-N′-cyclohexylbenzimidamide], the “F508del-CFTR corrector activity compared with inh-2 (CFTR activity, primary screen)” value was “inactive analogs”.
Turning to `CCOc1cccc(Cn2c(C)ns/c2=N\C(=N\c2ccccc2)c2ccccc2)c1` [Compound 19, (E)-N-((Z)-4-(3-Ethoxybenzyl)-3-methyl-1,2,4-thiadiazol-5(4H)-ylidene)-N′-phenylbenzimidamide], the “F508del-CFTR corrector activity compared with inh-2 (CFTR activity, primary screen)” value is given as “did not affect the activity”.
Take `Cc1ns/c(=N\C(=N\c2ccccc2)c2ccccc2)n1CCCc1ccccc1` [Compound 5, (E)-N-((Z)-3-Methyl-4-(3-phenylpropyl)-1,2,4-thiadiazol-5(4H)-ylidene)-N′-phenylbenzimidamide]: the “F508del-CFTR corrector activity compared with inh-2 (CFTR activity, primary screen)” value is on record as “devoid of significant F508del-CFTR corrector activity”.
For `Cc1ns/c(=N\C(=N\c2ccccc2)c2ccccc2)n1Cc1cccc(OC(C)C)c1` [Compound 18, (E)-N-((Z)-4-(3-Isopropoxybenzyl)-3-methyl-1,2,4-thiadiazol-5(4H)-ylidene)-N′-phenylbenzimidamide], the “F508del-CFTR corrector activity compared with inh-2 (CFTR activity, primary screen)” value was “decreased potency”.
As to `Cc1nn(Cc2ccccc2)/c(=N/C(=N/c2ccccc2)c2ccccc2)s1` [Compound 44, (E)-N-((Z)-3-Benzyl-5-methyl-1,3,4-thiadiazol-2(3H)-ylidene)-N′-phenylbenzimidamide], the “F508del-CFTR corrector activity compared with inh-2 (CFTR activity, primary screen)” value was “abolished any corrector activity”.
In the case of `Cc1cccc(/N=C(/N=c2\snc(C)n2Cc2ccccc2)c2ccccc2)c1` [Compound 37, (E)-N-((Z)-4-Benzyl-3-methyl-1,2,4-thiadiazol-5(4H)-ylidene)-N′-(m-tolyl)benzimidamide], the “F508del-CFTR corrector activity compared with inh-2 (CFTR activity, primary screen)” value was “inactive analogs”.
For `Cc1ccccc1Cn1c(C)ns/c1=N\C(=N\c1ccccc1)c1ccccc1` [Compound 25, (E)-N-((Z)-3-Methyl-4-(2-methylbenzyl)-1,2,4-thiadiazol-5(4H)-ylidene)-N′-phenylbenzimidamide], the “F508del-CFTR corrector activity compared with inh-2 (CFTR activity, primary screen)” value is “slight increase in activity”.
In the case of `COCCc1ccnc(/N=c2\snc(C)n2Cc2ccccc2)c1` [Compound 43, (Z)-4-Benzyl-N-(4-(2-methoxyethyl)pyridin-2-yl)-3-methyl-1,2,4-thiadiazol-5(4H)-imine], the “F508del-CFTR corrector activity compared with inh-2 (CFTR activity, primary screen)” value was “inactive compounds”.
Regarding `c1ccc(Cn2ncs/c2=N\C(=N\c2ccccc2)c2ccccc2)cc1` [Compound 45, (E)-N-((Z)-3-Benzyl-1,3,4-thiadiazol-2(3H)-ylidene)-N′-phenylbenzimidamide], the “F508del-CFTR corrector activity compared with inh-2 (CFTR activity, primary screen)” value was “abolished any corrector activity”.
With `COc1ccc(Cn2c(C)ns/c2=N\C(=N\c2ccccc2)c2ccccc2)cc1` [Compound 7, (E)-N-((Z)-4-(4-Methoxybenzyl)-3-methyl-1,2,4-thiadiazol-5(4H)-ylidene)-N′-phenylbenzimidamide], the “F508del-CFTR corrector activity compared with inh-2 (CFTR activity, primary screen)” value was “reduced potency”.
Consider `Cc1ns/c(=N\C(=N\c2ccccc2)c2cccnc2)n1Cc1ccccc1` [Compound 35, (E)-N-((Z)-4-Benzyl-3-methyl-1,2,4-thiadiazol-5(4H)-ylidene)-N′-phenylnicotinimidamide], for which the “F508del-CFTR corrector activity compared with inh-2 (CFTR activity, primary screen)” value was “drop of activity”.
Regarding `Cc1ns/c(=N\C(=N\c2ccccc2)c2ccccc2)n1Cc1ccc(Cl)cc1` [Compound 10, (E)-N-((Z)-4-(4-Chlorobenzyl)-3-methyl-1,2,4-thiadiazol-5(4H)-ylidene)-N′-phenylbenzimidamide], the “F508del-CFTR corrector activity compared with inh-2 (CFTR activity, primary screen)” value is “maintained the activity unaltered”.
With `COc1ccccc1Cn1c(C)ns/c1=N\C(=N\c1ccccc1)c1ccccc1` [Compound 27, (E)-N-((Z)-4-(2-Methoxybenzyl)-3-methyl-1,2,4-thiadiazol-5(4H)-ylidene)-N′-phenylbenzimidamide], the “F508del-CFTR corrector activity compared with inh-2 (CFTR activity, primary screen)” value is reported as “slight increase in activity”.
Regarding `Cc1ns/c(=N\C(=N\Cc2ccccc2)c2ccccc2)n1Cc1ccccc1` [Compound 38, (E)-N′-Benzyl-N-((Z)-4-benzyl-3-methyl-1,2,4-thiadiazol-5(4H)-ylidene)benzimidamide], the “F508del-CFTR corrector activity compared with inh-2 (CFTR activity, primary screen)” value was “inactive analogs”.
To `c1ccc(Cn2ccs/c2=N\C(=N\c2ccccc2)c2ccccc2)cc1` [Compound 46, (E)-N-((Z)-3-Benzylthiazol-2(3H)-ylidene)-N′-phenylbenzimidamide] belongs “abolished any corrector activity”; to `Cc1ns/c(=N\C(=N\c2ccccc2)c2ccccc2)n1Cc1cccc(F)c1` [Compound 23, (E)-N-((Z)-4-(3-Fluorobenzyl)-3-methyl-1,2,4-thiadiazol-5(4H)-ylidene)-N′-phenylbenzimidamide], “did not affect the activity”.

The record behind these values is article PMC10388311, “Innovative Strategy toward Mutant CFTR Rescue in Cystic Fibrosis: Design and Synthesis of Thiadiazole Inhibitors of the E3 Ligase RNF5” (Journal of Medicinal Chemistry, 2023).
